Results published in US20250011295A1, “USE OF 3-ARYLPHTHALIDES AND DERIVATIVES THEREOF AS ANTI-INFLAMMATORY AGENTS” (UNIVERSIDAD DE CÁDIZ, priority 2021, published 2025).

Key:
Type in all cases: cell-based
[1] = system: Bv.2 microglial cell line; assay: Nitrite production inhibition (Greiss colorimetric technique) in LPS-stimulated Bv.2 cells; details: LPS 2 μg·mL^−1, compound 10 μM; for Nitrite production, LPS or cytokines + Compound (10 μM): baseline = 1.00
Protocol: (§1) Anti-inflammatory activity was measured on Bv.2 microglial cell line (innate immune system of the central nervous system), macrophages, Raw 264.7 cell line (peripheral immune system), renal tubular cell lines, MCT (renal tubule epithelials) and pancreatic beta cells, INS-1 (insulin-producing cells targeted in the process leading to diabetes mellitus). […] The activation of the inflammatory process induces the secretion of nitrites (NO2) into the medium, so the induction and modulation of the inflammatory response by 3-(4,5-dihydroxy-2-(2-ethylthio)ethylphenyl)phthalide and 3-(2,4-dihydroxyphenyl)phthalide can be determined by means of the Greiss colorimetric technique.
(§2) Tables 1 and 2 show the results of the nitrite production inhibitory activity caused by compounds II and III (10 μM), respectively, on LPS-stimulated Bv2 and Raw264.7 cell lines and on cytokine-stimulated MCT and INS-1 cell lines.

[2] = system: pancreatic beta cells, INS-1; assay: Nitrite production inhibition (Greiss colorimetric technique) in cytokine-stimulated INS-1 cells; details: for % of reduction in nitrite production: cytokine cocktail 10 ng·mL^−1, compound 10 μM; for Nitrite production, LPS or cytokines + Compound (10 μM): cytokine cocktail (TNFα, IL1β, IFNγ, TFGβ) 10 ng·mL^−1, compound 10 μM, baseline = 1
Protocol: as §1, §2

[3] = system: renal tubular cell lines, MCT; assay: Nitrite production inhibition (Greiss colorimetric technique) in cytokine-stimulated MCT cells; details: for % of reduction in nitrite production: cytokine cocktail 10 ng·mL^−1, compound 10 μM; for Nitrite production, LPS or cytokines + Compound (10 μM): cytokine cocktail (TNFα, IL1β, IFNγ, TFGβ) 10 ng·mL^−1, compound 10 μM, baseline = 1.00
Protocol: as §1, §2

[4] = system: Bv.2, Raw 264.7, MCT and INS-1 cell lines; assay: Cytotoxic effect in treated cell lines; details: any of the treated cell lines
[5] = system: macrophages, Raw 264.7 cell line; assay: Nitrite production inhibition (Greiss colorimetric technique) in LPS-stimulated Raw 264.7 cells; details: LPS 2 μg·mL^−1, compound 10 μM; for Nitrite production, LPS or cytokines + Compound (10 μM): baseline = 1.00
Protocol: as §1, §2

Nos2 [6] = assay: Nos2 expression inhibition (qPCR) in kidney explants from BB rat; details: kidney explant, 20 μM for 24 h
Protocol: (§3) Anti-inflammatory activity was determined using organotypic cultures or retinal and kidney explants from a murine model which develops type 1 or autoimmune diabetes mellitus spontaneously, i.e., BioBreeding (BB) rat. This animal model of type 1 diabetes mellitus reproduces disease progression in a manner similar to that occurring in patients. Tissues, retina, and kidney are extracted, maintaining cytoarchitecture and tissue connections of each of the organs, from BB rats that are 7 weeks old, which is the time before the presence of constant hyperglycemia, which appears around weeks 9-11 of life. A prediabetic model with active inflammatory parameters that resemble those occurring during the progression of type 1 diabetes mellitus in patients is thereby obtained. The cultured explants were treated with 3-(2,4-dihydroxyphenyl)phthalide (compound III) at a dose of 20 μM for 24 h.
(§4) Activation of the inflammatory process induces nitric oxide synthase, Nos2, gene expression, with messenger RNA quantification being determined by means of the quantitative PCR technique (qPCR), and can show inflammatory response modulation in retinal and kidney explants from an animal model with type 1 or autoimmune diabetes mellitus.

Nos2 [7] = assay: Nos2 expression inhibition (qPCR) in retinal explants from BB rat; details: retinal explant, 20 μM for 24 h
Protocol: as §3, §4

[8] = 7 weeks old BB rat, untreated BB rat = 1.00

| SMILES | % of reduction in nitrite production [1] [%] | Nitrite production, LPS or cytokines + Compound (10 μM) [1] | % of reduction in nitrite production [2] [%] | Nitrite production, LPS or cytokines + Compound (10 μM) [2] | % of reduction in nitrite production [3] [%] | Nitrite production, LPS or cytokines + Compound (10 μM) [3] | cytotoxic effect ([4]; increasing doses for 24 h until the maximum concentration of 25 μM) | % of reduction in nitrite production [5] [%] | Nitrite production, LPS or cytokines + Compound (10 μM) [5] | Nos2 expression, BB rat + 3-(2,4-dihydroxyphenyl)phthalide (20 μM) (Nos2 [6]; [8]) | % of reduction of Nos2 expression (Nos2 [6]; BB rat) [%] | Nos2 expression, BB rat + 3-(2,4-dihydroxyphenyl)phthalide (20 μM) (Nos2 [7]; [8]) | % of reduction of Nos2 expression (Nos2 [7]; BB rat) [%] | cytotoxic effect ([4]; increasing doses for 24 h until the maximum concentration of 50 μM) |
| --- | --- | --- | --- | --- | --- | --- | --- | --- | --- | --- | --- | --- | --- | --- |
| CCSCCc1cc(O)c(O)cc1C1OC(=O)c2ccccc21 (stereo not shown) [Compound II, 3-(4,5-dihydroxy-2-(2-ethylthio)ethylphenyl)phthalide] | 48.31 | 1.98 ± 0.203 | 18.82 | 3.644 ± 0.004 | 77.91 | 1.788 ± 0.29 | no cytotoxic effect was detected | 79.88 | 1.38 ± 0.43 |  |  |  |  |  |
| O=C1OC(c2ccc(O)cc2O)c2ccccc21 (stereo not shown) [Compound III, 3-(2,4-dihydroxyphenyl)phthalide] | 62.92 | 3.47 ± 0.27 | 65.32 | 1.48 ± 0.02 | 83.14 | 1.53 ± 0.06 |  | 33.38 | 3.60 ± 0.42 | 0.348 ± 0.05 | 65.2 | 0.482 ± 0.05 | 51.8 | no cytotoxic effect was detected |
